In patent US20110086834A1, “ALKYNYL ALCOHOLS AS KINASE INHIBITORS” (AMGEN INC., priority 2008, published 2011):

Biological target: T1, NIK (Homo sapiens, UniProt Q99558)
T1 construct: Both assays utilize a truncated form of NIK containing only the catalytic domain; made in house; host or cells: baculovirus expression system (insect cells implied)
Assay: homogenous time resolved fluorescence (HTRF) assay for NIK Ki measurement
Format: biochemical
Settings: truncated NIK (catalytic domain only), autophosphorylation; 10 nM enzyme; 20, 100, 200 or 500 μM ATP; room temperature, 2 hours; read-out: Ki activity in the homogenous time resolved fluorescence (HTRF) assay for NIK
Method: Two formats of biochemical assays are implemented: (1) chemiluminescent (CL) assay for NIK IC50 determination; (2) homogenous time resolved fluorescence (HTRF) assay for NIK Ki measurement. […] The NIK proteins are purified with baculovirus expression system and further biotinylated with N-hydroxysuccinamide biotin ester (Sigma). […] The reaction mixtures are then immobilized on a Streptavidin-coated plate (Pierce). […] For the HTRF assay, 10 nM of enzyme are incubated with compounds in the presence of 20, 100, 200, or 500 μM of ATP in a buffer with 20 mM of Hepes pH7.5, 20 mM of MgCl2, 0.2% of Tween 20 and 1 mM of DTT at room temperature for 2 hours.

T1 sequence (Q99558 400-655 limits assumed): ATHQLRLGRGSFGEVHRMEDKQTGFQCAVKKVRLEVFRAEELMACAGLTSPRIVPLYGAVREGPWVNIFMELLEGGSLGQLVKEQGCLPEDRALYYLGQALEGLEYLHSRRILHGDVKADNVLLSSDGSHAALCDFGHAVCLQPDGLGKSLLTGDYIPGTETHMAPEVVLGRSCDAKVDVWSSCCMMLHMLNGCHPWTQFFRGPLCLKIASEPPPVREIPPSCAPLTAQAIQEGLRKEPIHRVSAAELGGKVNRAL

Row | Compound | Ki [nM]
1 | Cc1cc(C(C)(O)C#Cc2ccc3c(c2)N(c2nc(N)ncc2Cl)CC3)no1 (racemic) [Example 23, 4-(1-(2-amino-5-chloropyrimidin-4-yl)indolin-6-yl)-2-(5-methylisoxazol-3-yl)but-3-yn-2-ol] | < 1000
2 | CC(O)(C#Cc1ccc2c(c1)N(c1nc(N)ncc1Cl)CC2(C)C)c1nccs1 (racemic) [Example 39, 4-(1-(2-amino-5-chloro-4-pyrimidinyl)-3,3-dimethyl-2,3-dihydro-1H-indol-6-yl)-2-(1,3-thiazol-2-yl)-3-Butyn-2-ol] | < 1000
3 | CN1CC2(C1)CN(c1nc(N)ncc1Cl)c1cc(C#CC(C)(O)c3nccs3)ccc12 (racemic) [Example 181, (rac)-4-(1′-(2-amino-5-chloropyrimidin-4-yl)-1-methylspiro[azetidine-3,3′-indoline]-6′-yl)-2-(thiazol-2-yl)but-3-yn-2-ol] | < 1000
4 | CN1CCC2(C1)CN(c1nc(N)ncc1Cl)c1cc(C#CC3(O)CCCC3)ccc12 (racemic) [Example 188, 1-((1-(2-Amino-5-chloro-4-pyrimidinyl)-r-methyl-1,2-dihydrospiro[indole-3,3′-pyrrolidin]-6-yl)ethynyl)cyclopentanol] | < 1000
5 | CN1CCC2(C1)CN(c1nc(N)ncc1F)c1cc(C#CC3(O)CCCC3)ccc12 (racemic) [Example 190, (rac)-1-((1-(2-Amino-5-fluoro-4-pyrimidinyl)-1′-methyl-1,2-dihydrospiro[indole-3,3′-pyrrolidin]-6-yl)ethynyl)cyclopentanol] | < 1000
6 | CC(O)(C#Cc1ccc2c(c1)N(c1nc(N)ncc1Cl)CC21CCOC1)c1nccs1 (racemic) [Example 198, 4-(1′-(2-Amino-5-chloro-4-pyrimidinyl)-1′,2′,4,5-tetrahydrospiro[furan-3,3′-indol]-6′-yl)-2-(1,3-thiazol-2-yl)-3-butyn-2-ol] | < 1000
7 | CC(O)(C#Cc1ccc2c(c1)N(c1nc(N)ncc1Cl)CC21CCOCC1)c1nccs1 (racemic) [Example 208, (rac)-4-(1-(2-Amino-5-chloro-4-pyrimidinyl)-1,2,2′,3′,5′,6′-hexahydrospiro[indole-3,4′-pyran]-6-yl)-2-(1,3-thiazol-2-yl)-3-butyn-2-ol] | < 1000
8 | Cc1cc(C(C)(O)C#Cc2ccc3c(c2)N(c2nc(N)ncc2Cl)CC32CCOCC2)no1 (racemic) [Example 210, (rac)-4-(1-(2-Amino-5-chloro-4-pyrimidinyl)-1,2,2′,3′,5′,6′-hexahydrospiro[indole-3,4′-pyran]-6-yl)-2-(5-methyl-3-isoxazolyl)-3-butyn-2-ol] | < 1000
9 | CC(O)(C#Cc1ccc2c(c1)N(c1nc(N)ncc1Cl)CC21CCSCC1)c1nccs1 (racemic) [Example 214, (rac)-4-(1-(2-Amino-5-chloro-4-pyrimidinyl)-1,2,2′,3′,5′,6′-hexahydrospiro[indole-3,4′-thiopyran]-6-yl)-2-(1,3-thiazol-2-yl)-3-butyn-2-ol] | < 1000
10 | CC(O)(C#Cc1ccc2c(c1)N(c1nc(N)ncc1Cl)CC21CCS(=O)(=O)CC1)c1nccs1 (racemic) [Example 215, (rac)-4-(1-(2-Amino-5-chloro-4-pyrimidinyl)-1′,1′-dioxido-1,2,2′,3′,5′,6′-hexahydrospiro[indole-3,4′-thiopyran]-6-yl)-2-(1,3-thiazol-2-yl)-3-butyn-2-ol] | < 1000
11 | Cc1cc(C(C)(O)C#Cc2ccc3c(c2)N(c2nc(N)ncc2Cl)CC32CCS(=O)(=O)CC2)no1 (racemic) [Example 216, (rac)-4-(1-(2-Amino-5-chloro-4-pyrimidinyl)-1′,1′-dioxido-1,2,2′,3′,5′,6′-hexahydrospiro[indole-3,4′-thiopyran]-6-yl)-2-(5-methyl-3-isoxazolyl)-3-butyn-2-ol] | < 1000
12 | CN1CC[C@@]2(C1)CN(c1nc(N)ncc1Cl)c1cc(C#C[C@@](C)(O)c3nccs3)ccc12 (relative stereo) [Example 195, (2R)-4-((3R*)-1-(2-Amino-5-chloro-4-pyrimidinyl)-1′-methyl-1,2-dihydrospiro[indole-3,3′-pyrrolidin]-6-yl)-2-(1,3-thiazol-2-yl)-3-butyn-2-ol] | < 1000
13 | CN1CC[C@]2(C1)CN(c1nc(N)ncc1Cl)c1cc(C#C[C@@](C)(O)c3nccs3)ccc12 (relative stereo) [Example 197, (2R)-4-((3S*)-1-(2-Amino-5-chloro-4-pyrimidinyl)-1′-methyl-1,2-dihydrospiro[indole-3,3′-pyrrolidin]-6-yl)-2-(1,3-thiazol-2-yl)-3-butyn-2-ol] | < 1000
14 | C[C@@](O)(C#Cc1ccc2c(c1)N(c1nc(N)ncc1Cl)C[C@@]21CCOC1)c1nccs1 (relative stereo) [Example 200, (2R)-4-((3R*)-1′-(2-Amino-5-chloro-4-pyrimidinyl)-1′,2′,4,5-tetrahydrospiro[furan-3,3′-indol]-6′-yl)-2-(1,3-thiazol-2-yl)-3-butyn-2-ol] | < 1000
15 | Cc1cc([C@@](C)(O)C#Cc2ccc3c(c2)N(c2nc(N)ncc2Cl)CC3)no1 (single isomer, unassigned) [Example 24] | 1000 to 30000
16 | Cc1cc([C@](C)(O)C#Cc2ccc3c(c2)N(c2nc(N)ncc2Cl)CC3)no1 (single isomer, unassigned) [Example 25] | < 1000

Row | Compound | Ki [nM]
17 | Cc1cc([C@@](C)(O)C#Cc2ccc3c(c2)N(c2nc(N)ncc2Cl)CC3)on1 (single isomer, unassigned) [Example 28] | 1000 to 30000
18 | Cc1cc([C@](C)(O)C#Cc2ccc3c(c2)N(c2nc(N)ncc2Cl)CC3)on1 (single isomer, unassigned) [Example 29] | < 1000
19 | Cc1cc([C@@](C)(O)C#Cc2ccc3c(c2)N(c2nc(N)ncc2Cl)CC32CCOCC2)on1 (single isomer, unassigned) [Example 30] | < 1000
20 | Cc1cc([C@](C)(O)C#Cc2ccc3c(c2)N(c2nc(N)ncc2Cl)CC32CCOCC2)on1 (single isomer, unassigned) [Example 31] | < 1000
21 | CC1(C)CN(c2nc(N)ncc2Cl)c2cc(C#C[C@@](C)(O)c3nccs3)ccc21 (single isomer, unassigned) [Example 40] | < 1000
22 | CC1(C)CN(c2nc(N)ncc2Cl)c2cc(C#C[C@](C)(O)c3nccs3)ccc21 (single isomer, unassigned) [Example 41] | 1000 to 30000
23 | Cn1cncc1C(O)C#Cc1ccc2c(c1)N(c1nc(N)ncc1Cl)CC2(C)C (single isomer, unassigned) [Example 42, (1R*)-3-(1-(2-amino-5-chloro-4-pyrimidinyl)-3,3-dimethyl-2,3-dihydro-1H-indol-6-yl)-1-(1-methyl-1H-imidazol-5-yl)-2-propyn-1-ol] | 1000 to 30000
24 | Cn1cnc([C@H](O)C#Cc2ccc3c(c2)N(c2nc(N)ncc2Cl)CC3(C)C)c1 (single isomer, unassigned) [Example 47, (1R*)-3-(1-(2-amino-5-chloro-4-pyrimidinyl)-3,3-dimethyl-2,3-dihydro-1H-indol-6-yl)-1-(1-methyl-1H-imidazol-4-yl)-2-propyn-1-ol] | < 1000
25 | C[C@]1(CCO)CN(c2nc(N)ncc2Cl)c2cc(C#CC3(O)CCCC3)ccc21 (single isomer, unassigned) [Example 52, 1-(03R*)-1-(2-amino-5-chloro-4-pyrimidinyl)-3-(2-hydroxyethyl)-3-methyl-2,3-dihydro-1H-indol-6-yl)ethynyl)cyclopentanol] | < 1000
26 | CC(O)(C#Cc1ccc2c(c1)N(c1nc(N)ncc1Cl)CC2(C)CO)c1nccs1 (single isomer, unassigned) [Example 53, 4-((3 S*)-1-(2-amino-5-chloro-4-pyrimidinyl)-3-(hydroxymethyl)-3-methyl-2,3-dihydro-1H-indol-6-yl)-2-(1,3-thiazol-2-yl)-3-butyn-2-ol] | < 1000
27 | CC1(CO)CN(c2nc(N)ncc2Cl)c2cc(C#CC3(O)CCCC3)ccc21 (single isomer, unassigned) [Example 55, 1-(((3R*)-1-(2-amino-5-chloro-4-pyrimidinyl)-3-(hydroxymethyl)-3-methyl-2,3-dihydro-1H-indol-6-yl)ethynyl)cyclopentanol] | < 1000
28 | CC(C)(C#Cc1ccc2c(c1)N(c1nc(N)ncc1Cl)CC2(C)CO)C(=O)OCc1ccccc1 (single isomer, unassigned) [Example 57, benzyl 4-((3S*)-1-(2-amino-5-chloro-4-pyrimidinyl)-3-(hydroxymethyl)-3-methyl-2,3-dihydro-1H-indol-6-yl)-2,2-dimethyl-3-butynoate] | < 1000
29 | CC(C)(C#Cc1ccc2c(c1)N(c1nc(N)ncc1Cl)CC2(C)CO)CO (single isomer, unassigned) [Example 58, 4-((3S*)-1-(2-amino-5-chloro-4-pyrimidinyl)-3-(hydroxymethyl)-3-methyl-2,3-dihydro-1H-indol-6-yl)-2,2-dimethyl-3-Butyn-1-ol] | < 1000
30 | C[C@@](O)(C#Cc1ccc2c(c1)N(c1nc(N)ncc1Cl)CC2(CO)CO)c1nccs1 (single isomer, unassigned) [Example 61] | < 1000
31 | COCC1(C)CN(c2nc(N)nc3[nH]cnc23)c2cc(C#CC3(O)CCCC3)ccc21 (single isomer, unassigned) [Example 70, 1-(((3R*)-1-(2-amino-9H-purin-6-yl)-3-(methoxymethyl)-3-methyl-2,3-dihydro-1H-indol-6-yl)ethynyl)cyclopentanol] | < 1000
32 | C[C@@](O)(C#Cc1ccc2c(c1)N(c1nc(N)ncc1Cl)CC21COC1)c1nccs1 (single isomer, unassigned) [Example 82] | < 1000
